Assay results taken from patent publication US9108957B2 (MITSUBISHI TANABE PHARMA CORPORATION, priority 2009, dated 2015).

target: human recombinant TPK1 (Homo sapiens, UniProt P49841); assay: Inhibitory activity against P-GS1 phosphorylation by TPK1 (Kinase Glo luminescence); assay type: biochemical; details: 7.5 μM P-GS1, 10 μM ATP, 25° C. for 16 hours, Kinase Glo Reagent luminescent signal
Description: Inhibitory Activity of the Medicament of the Present Invention Against P-GS1 Phosphorylation by Bovine Cerebral TPK1
A mixture containing 100 mM HEPES-sodium hydroxide (pH 7.2), 1 mM magnesium acetate, 1 mM EGTA, 1 mM dithiothreitol (DTT), 0.02% Tween 20, 7.5 μM P-GS1, 10 μM ATP, human recombinant TPK1 and a compound shown in Table (a final mixture contained 1% DMSO deriving from a solution of a test compound prepared in the presence of 10% DMSO) was used as a reaction system. The phosphorylation was started by adding ATP, and the reaction was conducted at 25° C. for 16 hours. Then equal volume of Kinase Glo Reagent (Promega) was added to the mixture and luminescent signal from the mixture was measured. IC50 for each compound was calculated by setting the data of mixture without enzyme as 0% activity and that without compound as 100% activity.

Sequence of human recombinant TPK1 (P49841 whole entry): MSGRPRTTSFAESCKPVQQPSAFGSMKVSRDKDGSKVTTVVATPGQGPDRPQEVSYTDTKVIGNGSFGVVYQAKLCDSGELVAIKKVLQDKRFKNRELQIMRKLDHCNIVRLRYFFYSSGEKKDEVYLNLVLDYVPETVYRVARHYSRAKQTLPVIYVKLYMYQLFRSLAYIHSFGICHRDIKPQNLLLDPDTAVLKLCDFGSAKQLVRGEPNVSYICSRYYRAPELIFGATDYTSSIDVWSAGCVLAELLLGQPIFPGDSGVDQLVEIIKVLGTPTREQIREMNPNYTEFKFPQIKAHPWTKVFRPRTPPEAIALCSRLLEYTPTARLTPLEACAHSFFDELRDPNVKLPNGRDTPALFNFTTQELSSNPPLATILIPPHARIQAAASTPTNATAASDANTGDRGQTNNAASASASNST

Row | Structure (SMILES) | IC50 [nM]
1 | Cn1c(N2CCCO[C@@H](c3cccc(C#N)c3)C2)nc(-c2ccncn2)cc1=O [Compound A039, (S)-2-[2-(3-cyanophenyl)-1,4-oxazepan-4-yl]-3-methyl-6-(pyrimidin-4-yl)pyrimidin-4(3H)-one] | 31.9
2 | Cn1c(N2CCCOC(c3ccccc3)C2)nc(-c2ccncc2)cc1=O (stereo not drawn) [Compound A040, 2-(2-phenyl-1,4-oxazepan-4-yl)-3-methyl-6-(pyridin-4-yl)pyrimidin-4(3H)-one] | 32.7
3 | CC1CN(c2nc(-c3ccncc3F)cc(=O)n2C)CCCO1 (stereo not drawn) [Compound A041, 2-(2-methyl-1,4-oxazepan-4-yl)-6-(3-fluoropyridin-4-yl)-3-methylpyrimidin-4(3H)-one] | 34.8
4 | Cc1nc(-c2cccc([C@H]3CN(c4nc(-c5ccncc5)cc(=O)n4C)CCCO3)c2)no1 [Compound A042, (S)-2-[2-[3-(5-methyl-1,2,4-oxadiazol-3-yl)-phenyl]-1,4-oxazepan-4-yl]-3-methyl-6-(pyridin-4-yl)pyrimidin-4(3H)-one] | 44.6
5 | Cn1c(N2CCCO[C@H](c3cccc(Br)c3)C2)nc(-c2ccncn2)cc1=O [Compound A043, (R)-2-[2-(3-bromophenyl)-1,4-oxazepan-4-yl]-3-methyl-6-(pyrimidin-4-yl)pyrimidin-4(3H)-one] | 51
6 | Cn1c(N2CCCO[C@H](c3ccc(Br)cc3)C2)nc(-c2ccncc2F)cc1=O [Compound A044, (R)-2-[2-(4-bromophenyl)-1,4-oxazepan-4-yl]-6-(3-fluoropyridin-4-yl)-3-methylpyrimidin-4(3H)-one] | 52.4
7 | Cc1noc(-c2cccc([C@H]3CN(c4nc(-c5ccncn5)cc(=O)n4C)CCCO3)c2)n1 [Compound A045, (S)-2-[2-[3-(3-methyl-1,2,4-oxadiazol-5-yl)phenyl]-1,4-oxazepan-4-yl]-3-methyl-6-(pyrimidin-4-yl)pyrimidin-4(3H)-one] | 57.1
8 | Cn1c(N2CCCO[C@@H](c3cccc(C#N)c3)C2)nc(-c2ccncc2)cc1=O [Compound A046, (S)-2-[2-(3-cyanophenyl)-1,4-oxazepan-4-yl]-3-methyl-6-(pyridin-4-yl)pyrimidin-4(3H)-one] | 61.5
9 | Cn1c(N2CCCO[C@H](c3cccc(C#N)c3)C2)nc(-c2ccncc2F)cc1=O [Compound A047] | 67.5
10 | Cn1c(N2CCCO[C@H](c3cccc(C(N)=O)c3)C2)nc(-c2ccncc2)cc1=O [Compound A048, (R)-2-[2-(3-aminocarbonylphenyl)-1,4-oxazepan-4-yl]-3-methyl-6-(pyridin-4-yl)pyrimidin-4(3H)-one] | 68.8
11 | Cn1c(N2CCCO[C@H](c3cccc(C(N)=O)c3)C2)nc(-c2ccncn2)cc1=O [Compound A049, (R)-2-[2-(3-aminocarbonylphenyl)-1,4-oxazepan-4-yl]-3-methyl-6-(pyrimidin-4-yl)pyrimidin-4(3H)-one] | 70.6
12 | Cc1nc(-c2ccc([C@H]3CN(c4nc(-c5ccncc5)cc(=O)n4C)CCCO3)cc2)no1 [Compound A050, (S)-2-[2-[4-(5-methyl-[1,2,4]oxadiazol-3-yl)-phenyl]-1,4-oxazepan-4-yl]-3-methyl-6-(pyridin-4-yl)pyrimidin-4(3H)-one] | 77.4
13 | CC1CN(c2nc(-c3ccncn3)cc(=O)n2C)CCCO1 (stereo not drawn) [Compound A051, 2-(2-methyl-1,4-oxazepan-4-yl)-3-methyl-6-(pyrimidin-4-yl)pyrimidin-4(3H)-one] | 80.3
14 | Cc1nc(-c2ccc([C@@H]3CN(c4nc(-c5ccncc5F)cc(=O)n4C)CCCO3)cc2)no1 [Compound A052, (R)-2-[2-[4-(5-methyl-1,2,4-oxadiazol-3-yl)-phenyl]-1,4-oxazepan-4-yl]-6-(3-fluoropyridin-4-yl)-3-methylpyrimidin-4(3H)-one] | 92.1
15 | Cc1noc(-c2ccc([C@@H]3CN(c4nc(-c5ccncc5F)cc(=O)n4C)CCCO3)cc2)n1 [Compound A053, (R)-2-[2-[4-(3-methyl-1,2,4-oxadiazol-5-yl)-phenyl]-1,4-oxazepan-4-yl]-6-(3-fluoropyridin-4-yl)-3-methylpyrimidin-4(3H)-one] | 100
16 | Cn1c(N2CCCO[C@H](c3ccc(F)cc3)C2)nc(-c2ccncc2F)cc1=O [Compound A054, (R)-2-[2-(4-fluorophenyl)-1,4-oxazepan-4-yl]-6-(3-fluoropyridin-4-yl)-3-methylpyrimidin-4(3H)-one] | 111
17 | Cc1nc(-c2cccc([C@@H]3CN(c4nc(-c5ccncc5F)cc(=O)n4C)CCCO3)c2)no1 [Compound A055] | 164
18 | Cc1noc(-c2cccc([C@H]3CN(c4nc(-c5ccncc5)cc(=O)n4C)CCCO3)c2)n1 [Compound A056, (S)-2-[2-[3-(3-methyl-1,2,4-oxadiazol-5-yl)-phenyl]-1,4-oxazepan-4-yl]-3-methyl-6-(pyridin-4-yl)pyrimidin-4(3H)-one] | 169

Row | Structure (SMILES) | IC50 [nM]
19 | Cn1c(N2CCCO[C@H](c3ccc(F)cc3)C2)nc(-c2ccncc2)cc1=O [Compound A057, (R)-2-(2-(4-fluorophenyl)-1,4-oxazepan-4-yl)-3-methyl-6-(pyridin-4-yl)pyrimidin-4(3H)-one] | 207
20 | Cn1c(N2CCCO[C@H](c3ccc(Br)cc3)C2)nc(-c2ccncn2)cc1=O [Compound A058, (R)-2-(2-(4-bromophenyl)-1,4-oxazepan-4-yl)-3-methyl-6-(pyrimidin-4-yl)pyrimidin-4(3H)-one] | 221
21 | Cc1noc(-c2cccc([C@@H]3CN(c4nc(-c5ccncc5F)cc(=O)n4C)CCCO3)c2)n1 [Compound A059, (R)-2-[2-[3-(3-methyl-1,2,4-oxadiazol-5-yl)-phenyl]-1,4-oxazepan-4-yl]-6-(3-fluoropyridin-4-yl)-3-methylpyrimidin-4(3H)-one] | 241
22 | Cn1c(N2CCCO[C@H](c3ccc(C(N)=O)cc3)C2)nc(-c2ccncn2)cc1=O [Compound A060, (R)-2-[2-(4-aminocarbonylphenyl)-1,4-oxazepan-4-yl]-3-methyl-6-(pyrimidin-4-yl)pyrimidin-4(3H)-one] | 252
23 | CC1CN(c2nc(-c3ccncc3)cc(=O)n2C)CCCO1 (stereo not drawn) [Compound A061, 2-(2-methyl-1,4-oxazepan-4-yl)-3-methyl-6-(pyridin-4-yl)pyrimidin-4(3H)-one] | 446
24 | Cn1c(N2CCCO[C@H](c3ccc(C(N)=O)cc3)C2)nc(-c2ccncc2)cc1=O [Compound A062, (R)-2-[2-(4-aminocarbonylphenyl)-1,4-oxazepan-4-yl]-3-methyl-6-(pyridin-4-yl)pyrimidin-4(3H)-one] | 809
25 | Cn1c(N2CCCO[C@H](c3ccc(C#N)cc3)C2)nc(-c2ccncc2F)cc1=O [Compound A063, (R)-2-[2-(4-cyanophenyl)-1,4-oxazepan-4-yl]-6-(3-fluoropyridin-4-yl)-3-methylpyrimidin-4(3H)-one] | 826
26 | C[C@@H]1COCCCN1c1nc(-c2ccncn2)cc(=O)n1C [Compound A064, (R)-3-methyl-2-(3-methyl-1,4-oxazepan-4-yl)-6-(pyrimidin-4-yl)pyrimidin-4(3H)-one] | 23.2
27 | Cn1c(N2CCOCCC2c2ccccc2)nc(-c2ccncc2F)cc1=O (stereo not drawn) [Compound A066, 6-(3-fluoropyridin-4-yl)-3-methyl-2-(5-phenyl-1,4-oxazepan-4-yl)pyrimidin-4(3H)-one] | 5.5
28 | CC1CCOCCN1c1nc(-c2ccncc2F)cc(=O)n1C (stereo not drawn) [Compound A067, 6-(3-fluoropyridin-4-yl)-3-methyl-2-(5-methyl-1,4-oxazepan-4-yl)pyrimidin-4(3H)-one] | 9.7
29 | CC1CCOCCN1c1nc(-c2ccncn2)cc(=O)n1C (stereo not drawn) [Compound A070, 3-methyl-2-(5-methyl-1,4-oxazepan-4-yl)-6-(pyrimidin-4-yl)pyrimidin-4(3H)-one] | 17.3
30 | Cn1c(N2CCOCCC2c2ccccc2)nc(-c2ccncn2)cc1=O (stereo not drawn) [Compound A071, 3-methyl-2-(5-phenyl-1,4-oxazepan-4-yl)-6-(pyrimidin-4-yl)pyrimidin-4(3H)-one] | 41
31 | CCC1CCOCCN1c1nc(-c2ccncc2F)cc(=O)n1C (stereo not drawn) [Compound A072, 6-(3-fluoropyridin-4-yl)-3-methyl-2-(5-ethyl-1,4-oxazepan-4-yl)pyrimidin-4(3H)-one] | 65
32 | CCC1CCOCCN1c1nc(-c2ccncn2)cc(=O)n1C (stereo not drawn) [Compound A073, 3-methyl-2-(5-ethyl-1,4-oxazepan-4-yl)-6-(pyrimidin-4-yl)pyrimidin-4(3H)-one] | 195
33 | Cn1c(N2CCOC[C@@H](c3ccc(Br)cc3)C2)nc(-c2ccncn2)cc1=O [Compound A074, (S)-2-[6-(4-bromophenyl)-1,4-oxazepan-4-yl]-3-methyl-6-(pyrimidin-4-yl)pyrimidin-4(3H)-one] | 1.2
34 | Cn1c(N2CCOC[C@@H](c3ccc(C#N)cc3)C2)nc(-c2ccncn2)cc1=O [Compound A076, (S)-2-[6-(4-cyanoophenyl)-1,4-oxazepan-4-yl]-3-methyl-6-(pyrimidin-4-yl)pyrimidin-4(3H)-one] | 3.1
35 | Cc1noc(-c2ccc(C3COCCN(c4nc(-c5ccncc5F)cc(=O)n4C)C3)cc2)n1 (stereo not drawn) [Compound A077, 2-[6-[4-(3-methyl-1,2,4-oxadiazol-5-yl)-phenyl]-1,4-oxazepan-4-yl]-6-(3-fluoropyridin-4-yl)-3-methylpyrimidin-4(3H)-one] | 5.9
36 | Cn1c(N2CCOCC(c3ccc(-c4ncon4)cc3)C2)nc(-c2ccncc2F)cc1=O (stereo not drawn) [Compound A078, 2-[6-[4-(1,2,4-oxadiazol-3-yl)-phenyl]-1,4-oxazepan-4-yl]-6-(3-fluoropyridin-4-yl)-3-methylpyrimidin-4(3H)-one] | 7.1
